Results: patent publication US20200078468A1, “NEUROTENSIN RECEPTOR BINDING CONJUGATES AND FORMULATIONS THEREOF” (priority 2016, published 2020)
Read-outs that look alike come from different tables or passages of the source. Square brackets hold non-standard residues; d marks the D form. Peptide text beside a SMILES is read from it. * marks the point of attachment. X4 = CCc1c2c(nc3ccc(O)cc13)-c1cc3c(c(=O)n1C2)COC(=O)[C@@]3(CC)OC(=O)OCCS*; Pen = CC(C)(S)[C@H](N)C(=O)O; Tle = CC(C)(C)[C@H](N)C(=O)O

What was measured:
[1] = molecular target: T1, human NTSR1 (Homo sapiens, UniProt P30989); test: radioligand-receptor binding assay, [125I] labeled neurotensin (Eurofins Panlabs)
T1 construct: host or cells: HEK-293 cells (membrane preparations)
Protocol: Conjugates were assessed in an in vitro assay evaluating binding to NTSR1. A radioligand-receptor binding assay was conducted at Eurofins Panlabs (Taiwan) to determine the affinity of conjugates described herein to NTSR1. The assay measures binding of radiolabeled ligand, [^125I] labeled neurotensin, to human NTSR1 using membrane preparations from NTSR1 expressing HEK-293 cells (Human embryonic kidney cells 293). Membranes were incubated with radiolabeled neurotensin (0.02 nM) in the presence of conjugate/compound starting at a dose of either 100 nM, or 10 nM, using 3× serial dilutions to obtain a 6-pt curve. After a 45 minute incubation, membranes were filtered and washed 3× and counted to determine the remaining [^125I] neurotensin bound to the receptor. IC50 values were determined by a non-linear, least squares regression analysis using MathIQ™ (ID Business Solutions Ltd., UK). The Ki values were calculated using the equation of Cheng and Prusoff (Cheng and Prusoff, Biochem. Pharmacol. 22:3099-3108, 1973) using the observed IC50 of the tested conjugate/compound, the concentration of radioligand employed in the assay, and the historical values for the Kd of the ligand obtained at Eurofins.

[2] = tested on: SW48 (human colon cancer cells); test: inhibition of SW48 cell proliferation (CellTiter Glo); format: cell-based; conditions: 72 hrs, read-out: SW-48 proliferation IC50
Procedure, shortened: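 Cells plated at 5,000/well and grown 24 hrs were exposed to conjugates for 72 hrs at 37° C, 5% CO2, in a ten-point three-fold series starting at 10 μM; vehicle was 0.01% DMSO. Proliferation was read by CellTiter Glo. % inhibition was taken relative to vehicle, with IC50 from four-parameter nonlinear regression.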

[3] = [125I] neurotensin 0.02 nM, membranes from NTSR1 expressing HEK-293 cells, 45 minute incubation, Cheng and Prusoff, read-out: NTSR1 binding Ki

T1 sequence (P30989 whole entry): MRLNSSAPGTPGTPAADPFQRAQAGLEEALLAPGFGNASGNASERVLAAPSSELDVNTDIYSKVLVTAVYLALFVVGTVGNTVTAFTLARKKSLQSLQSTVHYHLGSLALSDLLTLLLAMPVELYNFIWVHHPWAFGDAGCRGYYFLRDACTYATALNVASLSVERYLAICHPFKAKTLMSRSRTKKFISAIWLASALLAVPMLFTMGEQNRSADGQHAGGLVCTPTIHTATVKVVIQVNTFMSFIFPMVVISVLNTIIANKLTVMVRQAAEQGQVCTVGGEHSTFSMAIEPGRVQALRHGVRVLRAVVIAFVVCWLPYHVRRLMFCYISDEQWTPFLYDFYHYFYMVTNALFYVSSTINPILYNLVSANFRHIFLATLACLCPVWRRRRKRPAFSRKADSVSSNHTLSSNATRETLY

COc1cc2cc(c1Cl)N(C)C(=O)C[C@H](OC(=O)[C@H](C)N(C)C(=O)CCSC1CC(=O)N(CCCNC(=O)CNC(=O)[C@H](CC(C)C)NC(=O)[C@H](Cc3ccccc3)NC(=O)CNC(=O)CCCCCN3C(=O)CC(SCCC(=O)NCCCC[C@H](NC(C)=O)C(=O)N4CCC[C@H]4C(=O)N[C@@H](CCCN)C(=O)N[C@@H](CCN)C(=O)N4CCC[C@H]4C(=O)N[C@@H](Cc4ccc(O)cc4)C(=O)N[C@H](C(=O)N[C@@H](CC(C)C)C(=O)O)C(C)(C)C)C3=O)C1=O)[C@]1(C)O[C@H]1[C@H](C)[C@@H]1C[C@@](O)(NC(=O)O1)[C@H](OC)/C=C/C=C(\C)C2 (some centres unmarked) [Compound 36]
Ki [1, 3]: 4.8 nM
IC50 ([2]; NTSR1 targeted compound): 50 nM

COc1cc2cc(c1Cl)N(C)C(=O)C[C@H](OC(=O)[C@H](C)N(C)C(=O)CCSC1CC(=O)N(CCCNC(=O)CNC(=O)[C@H](CC(C)C)NC(=O)[C@H](Cc3ccccc3)NC(=O)CNC(=O)CCCCCN3C(=O)CC(SCCC(=O)NCCCC[C@H](NC(C)=O)C(=O)N4CCC[C@H]4C(=O)N[C@H](CCCN)C(=O)N[C@@H](CCCNC(=N)N)C(=O)N4CCC[C@H]4C(=O)N[C@@H](Cc4ccc(O)cc4)C(=O)N[C@H](C(=O)N[C@@H](CC(C)C)C(=O)O)C(C)(C)C)C3=O)C1=O)[C@]1(C)O[C@H]1[C@H](C)[C@@H]1C[C@@](O)(NC(=O)O1)[C@H](OC)/C=C/C=C(\C)C2 (some centres unmarked) [Compound 35]
Ki [1, 3]: 3.75 nM
IC50 ([2]; NTSR1 targeted compound): 47.3 nM

COc1cc2cc(c1Cl)N(C)C(=O)C[C@H](OC(=O)[C@H](C)N(C)C(=O)CCSC1CC(=O)N(CCCNC(=O)CNC(=O)[C@H](CC(C)C)NC(=O)[C@H](Cc3ccccc3)NC(=O)CNC(=O)CCCCCN3C(=O)CC(SC(C)(C)[C@H](NC(C)=O)C(=O)N4CCC[C@H]4C(=O)N[C@@H](CCCCN)C(=O)N[C@@H](CCCNC(=N)N)C(=O)N4CCC[C@H]4C(=O)N[C@@H](Cc4ccc(O)cc4)C(=O)N[C@H](C(=O)N[C@@H](CC(C)C)C(=O)O)C(C)(C)C)C3=O)C1=O)[C@]1(C)O[C@H]1[C@H](C)[C@@H]1C[C@@](O)(NC(=O)O1)[C@H](OC)/C=C/C=C(\C)C2 (some centres unmarked) [Compound 21]
Ki [1, 3]: 4.65 nM
IC50 ([2]; NTSR1 targeted compound): 0.49 nM

COc1cc2cc(c1Cl)N(C)C(=O)C[C@H](OC(=O)[C@H](C)N(C)C(=O)CCSC1CC(=O)N(CCCNC(=O)CNC(=O)[C@H](CC(C)C)NC(=O)[C@H](Cc3ccccc3)NC(=O)CNC(=O)CCCCCN3C(=O)CC(SC(C)(C)[C@H](NC(C)=O)C(=O)N4CCC[C@H]4C(=O)N(C)[C@@H](CCCNC(=N)N)C(=O)N[C@@H](CCCNC(=N)N)C(=O)N4CCC[C@H]4C(=O)N[C@@H](Cc4ccc(O)cc4)C(=O)N[C@H](C(=O)N[C@@H](CC(C)C)C(=O)O)C(C)(C)C)C3=O)C1=O)[C@]1(C)O[C@H]1[C@H](C)[C@@H]1C[C@@](O)(NC(=O)O1)[C@H](OC)/C=C/C=C(\C)C2 (some centres unmarked) [Compound 20]
Ki [1, 3]: 0.93 nM
IC50 ([2]; NTSR1 targeted compound): 6.8 nM

COc1cc2cc(c1Cl)N(C)C(=O)C[C@H](OC(=O)[C@H](C)N(C)C(=O)CCSC1CC(=O)N(CCCNC(=O)CNC(=O)[C@H](CC(C)C)NC(=O)[C@H](Cc3ccccc3)NC(=O)CNC(=O)CCCCCN3C(=O)CC(SC(C)(C)[C@H](NC(C)=O)C(=O)N4CCC[C@H]4C(=O)N[C@@H](CCCNC(=N)N)C(=O)N(C)[C@@H](CCCNC(=N)N)C(=O)N4CCC[C@H]4C(=O)N[C@H](Cc4ccc(O)cc4)C(=O)N[C@H](C(=O)N[C@@H](CC(C)C)C(=O)O)C(C)(C)C)C3=O)C1=O)[C@]1(C)O[C@H]1[C@H](C)[C@@H]1C[C@@](O)(NC(=O)O1)[C@H](OC)/C=C/C=C(\C)C2 (some centres unmarked) [Compound 18]
Ki [1, 3]: > 100 nM
IC50 ([2]; NTSR1 targeted compound): 36 nM

CCc1c2c(nc3ccc(O)cc13)-c1cc3c(c(=O)n1C2)COC(=O)[C@@]3(CC)OC(=O)OCCSSC(C)(C)[C@H](NC(C)=O)C(=O)N1CCC[C@H]1C(=O)N[C@@H](CCCNC(=N)N)C(=O)N[C@@H](CCCNC(=N)N)C(=O)N1CCC[C@H]1C(=O)N[C@@H](Cc1ccc(O)cc1)C(=O)N[C@H](C(=O)N[C@@H](CC(C)C)C(=O)O)C(C)(C)C [Compound 63] (Ac-[Pen](X4)PRRPY[Tle]L-OH)
Ki [1, 3]: 1.89 nM
IC50 ([2]; NTSR1 targeted compound): 226 nM

COc1cc2cc(c1Cl)N(C)C(=O)C[C@H](OC(=O)[C@H](C)N(C)C(=O)CCSC1CC(=O)N(CCCNC(=O)CNC(=O)[C@H](CC(C)C)NC(=O)[C@H](Cc3ccccc3)NC(=O)CNC(=O)CCCCCN3C(=O)CC(SC(C)(C)[C@H](NC(C)=O)C(=O)N4CCC[C@H]4C(=O)N[C@@H](CCCCN)C(=O)N(C)[C@@H](CCCNC(=N)N)C(=O)N4CCC[C@H]4C(=O)N[C@@H](Cc4ccc(O)cc4)C(=O)N[C@H](C(=O)N[C@@H](CC(C)C)C(=O)O)C(C)(C)C)C3=O)C1=O)[C@]1(C)O[C@H]1[C@H](C)[C@@H]1C[C@@](O)(NC(=O)O1)[C@H](OC)/C=C/C=C(\C)C2 (some centres unmarked) [Compound 22]
Ki [1, 3]: 12.6 nM
IC50 ([2]; NTSR1 targeted compound): 0.53 nM

COc1cc2cc(c1Cl)N(C)C(=O)C[C@H](OC(=O)[C@H](C)N(C)C(=O)CCSC1CC(=O)N(CCCNC(=O)CNC(=O)[C@H](CC(C)C)NC(=O)[C@H](Cc3ccccc3)NC(=O)CNC(=O)CCCCCN3C(=O)CC(SC(C)(C)[C@H](NC(C)=O)C(=O)N4CCC[C@H]4C(=O)N[C@@H](CCCNC(=N)N)C(=O)N(C)[C@@H](CCCNC(=N)N)C(=O)N4CCC[C@H]4C(=O)N[C@@H](Cc4ccc(O)cc4)C(=O)N[C@H](C(=O)N[C@@H](CC(C)C)C(=O)O)C(C)(C)C)C3=O)C1=O)[C@]1(C)O[C@H]1[C@H](C)[C@@H]1C[C@@](O)(NC(=O)O1)[C@H](OC)/C=C/C=C(\C)C2 (some centres unmarked) [Compound 17]
Ki [1, 3]: 10.6 nM
IC50 ([2]; NTSR1 targeted compound): 3.9 nM

COc1cc2cc(c1Cl)N(C)C(=O)C[C@H](OC(=O)[C@H](C)N(C)C(=O)CCSC1CC(=O)N(CCCNC(=O)CNC(=O)[C@H](CC(C)C)NC(=O)[C@H](Cc3ccccc3)NC(=O)CNC(=O)CCCCCN3C(=O)CC(SC(C)(C)[C@H](NC(C)=O)C(=O)N4CCC[C@H]4C(=O)N[C@@H](CC(C)C)C(=O)N4CCC[C@H]4C(=O)N[C@@H](CCCNC(=N)N)C(=O)N[C@H](C(=O)N[C@@H](CCCNC(=N)N)C(=O)N[C@@H](Cc4ccc(O)cc4)C(=O)O)C(C)(C)C)C3=O)C1=O)[C@]1(C)O[C@H]1[C@H](C)[C@@H]1C[C@@](O)(NC(=O)O1)[C@H](OC)/C=C/C=C(\C)C2 (some centres unmarked) [Compound 81]
Ki [1]: > 100 nM
IC50 ([2]; NTSR1 scrambled compound): 70 nM

COc1cc2cc(c1Cl)N(C)C(=O)C[C@H](OC(=O)[C@H](C)N(C)C(=O)CCSC1CC(=O)N(CCCNC(=O)CNC(=O)[C@H](CC(C)C)NC(=O)[C@H](Cc3ccccc3)NC(=O)CNC(=O)CCCCCN3C(=O)CC(SCCC(=O)NCCCC[C@H](NC(C)=O)C(=O)N4CCC[C@H]4C(=O)N[C@@H](CCCCN)C(=O)N[C@@H](CCCNC(=N)N)C(=O)N4CCC[C@H]4C(=O)N[C@@H](Cc4ccc(O)cc4)C(=O)N[C@H](C(=O)N[C@@H](CC(C)C)C(=O)O)C(C)(C)C)C3=O)C1=O)[C@]1(C)O[C@H]1[C@H](C)[C@@H]1C[C@@](O)(NC(=O)O1)[C@H](OC)/C=C/C=C(\C)C2 (some centres unmarked) [Compound 33]
Ki [1, 3]: 2.32 nM
IC50 ([2]; NTSR1 targeted compound): 105 nM

COc1cc2cc(c1Cl)N(C)C(=O)C[C@H](OC(=O)[C@H](C)N(C)C(=O)CCSSC(C)(C)[C@H](NC(C)=O)C(=O)N1CCC[C@H]1C(=O)N[C@@H](CC(C)C)C(=O)N1CCC[C@H]1C(=O)N[C@@H](CCCNC(=N)N)C(=O)N[C@H](C(=O)N[C@@H](CCCNC(=N)N)C(=O)N[C@@H](Cc1ccc(O)cc1)C(=O)O)C(C)(C)C)[C@]1(C)O[C@H]1[C@H](C)[C@@H]1C[C@@](O)(NC(=O)O1)[C@H](OC)/C=C/C=C(\C)C2 [Compound 77]
Ki [1, 3]: > 100 nM
IC50 ([2]; NTSR1 scrambled compound): 16.5 nM

COc1cc2cc(c1Cl)N(C)C(=O)C[C@H](OC(=O)[C@H](C)N(C)C(=O)CCSC1CC(=O)N(CCCNC(=O)CNC(=O)[C@H](CC(C)C)NC(=O)[C@H](Cc3ccccc3)NC(=O)CNC(=O)CCCCCN3C(=O)CC(SC(C)(C)[C@H](NC(C)=O)C(=O)N4CCC[C@H]4C(=O)N[C@@H](CCCNC(=N)N)C(=O)N(C)[C@@H](CCCNC(=N)N)C(=O)N4CCC[C@H]4C(=O)N[C@@H](Cc4c[nH]c5ccccc45)C(=O)N[C@H](C(=O)N[C@@H](CC(C)C)C(=O)O)C(C)(C)C)C3=O)C1=O)[C@]1(C)O[C@H]1[C@H](C)[C@@H]1C[C@@](O)(NC(=O)O1)[C@H](OC)/C=C/C=C(\C)C2 (some centres unmarked) [Compound 19]
Ki [1, 3]: > 100 nM
IC50 ([2]; NTSR1 targeted compound): 6.3 nM

COc1cc2cc(c1Cl)N(C)C(=O)C[C@H](OC(=O)[C@H](C)N(C)C(=O)CCSC1CC(=O)N(CCCNC(=O)CNC(=O)[C@H](CC(C)C)NC(=O)[C@H](Cc3ccccc3)NC(=O)CNC(=O)CCCCCN3C(=O)CC(SCCC(=O)NCCCC[C@H](NC(C)=O)C(=O)N4CCC[C@H]4C(=O)N[C@@H](CCCCN)C(=O)N[C@@H](CCN)C(=O)N4CCC[C@H]4C(=O)N[C@@H](Cc4ccc(O)cc4)C(=O)N[C@H](C(=O)N[C@@H](CC(C)C)C(=O)O)C(C)(C)C)C3=O)C1=O)[C@]1(C)O[C@H]1[C@H](C)[C@@H]1C[C@@](O)(NC(=O)O1)[C@H](OC)/C=C/C=C(\C)C2 (some centres unmarked) [Compound 32]
Ki [1, 3]: 5.03 nM
IC50 ([2]; NTSR1 targeted compound): 70.8 nM
